Experimental data: paper PMC6050274, “Buparlisib is a brain penetrable pan-PI3K inhibitor” (Scientific Reports, 2018)
Values joined by “and” are separate entries in the source; they are usually repeats but may differ in a detail not shown here. Equal values may be shown once. Read-outs that look alike come from different tables or passages of the source.

What was measured:
[1] = Plasma pharmacokinetics after i.v. and oral administration in male and female mice; format: in vivo, FVB mice; conditions: for bioavailability: p.o. (5 mg/kg) vs i.v. (2 mg/kg), read-out: F (oral bioavailability); for Vd/F: read-out: Vz/F
Experimental: Finally, we studied the pharmacokinetics of buparlisib in male and female mice and assessed the oral bioavailability in both genders by comparing the area-under-the-plasma concentration-time-curves (AUCs) following intravenous and oral administration. Both after oral and i.v. administration there was no difference in pharmacokinetics between male and female mice (Fig. 3C, Table 1).
The pharmacokinetics of buparlisib were analysed in WT, Abcg2^−/−, Abcb1a/b^−/− and Abcb1a/b; Abcg2^−/− FVB mice. All knockout mice strains have been developed within our institute[41]–[43]. For i.v. administration, buparlisib was dissolved in DMSO and injected at a dose of 2 mg/kg. For oral administration, buparlisib was formulated in DMSO:Cremophor EL:water (1:1:8 v/v/v) and administered at 1, 2 or 5 mg/kg as indicated. Tail vein bleeding was used to collect blood at intermediate time points, whereas at the last time point blood was drawn by cardiac puncture and various tissue were collected. Plasma was obtained from whole blood by centrifugation (5 min, 5,000 rpm, 4 °C). After weighing, tissues were homogenized using a FastPrep®-24 (MP-Biomedicals, NY) in 1% (w/v) bovine serum albumin in water. Buparlisib was extracted from plasma and tissue homogenate by liquid-liquid extraction with ethyl acetate using AZD8055 as an internal standard.
Buparlisib was measured in samples from in vitro transport assays and in vivo pharmacokinetic studies using an LC-MS/MS system comprised of an UltiMate 3000 LC Systems (Dionex, Sunnyvale, CA) and an API 4000 mass spectrometer (Sciex, Framingham, MA). Samples were run through a Securityguard C18 pre-column (Phenomenex, Utrecht, The Netherlands) prior to separation on a ZORBAX Extend-C18 column (Agilent, Santa Clara, CA). Elution was done using a in a 5 minute gradient from 20% to 95% B (mobile phase A was 0.1% HCOOH in water (v/v) and mobile phase B was methanol). 95% B was maintained for 3 min followed by re-equilibration at 20% B. Multiple reaction monitoring was performed at 411.3/367.2 (buparlisib) and 418.2/138.4 (AZD8055). Analyst® 1.6.2 software (AB Sciex; Foster City, CA) was used for system control and data analysis.
As described in detail before, CETA results were analysed with the General linear model repeated measures procedure of SPSS (v22; SPSS Inc, Chicago, IL)[25]. PK solver was used to determine pharmacokinetic parameters. The standard error of the oral bioavailability was calculated using the formula below: SEF=F(SEAUCp.o./AUCp.o.)^2+(SEAUCi.v./AUCi.v.)^2 Buparlisib concentrations in WT and transporter knockout mice in vivo were compared using one-way analysis of variance followed by post hoc Bonferroni tests. Statistical differences between the buparlisib PK parameters in male and female mice were calculated as Bonferroni corrected p-values using multiple Student’s t-tests. Differences were considered statistically significant when p < 0.05.

PI3K = experiment: Intracranial target inhibition, immunoblotting of brain lysates; format: in vivo, FVB mice
Experimental: Figure 3 Buparlisib has excellent intracranial target engagement and oral bioavailability. (A) Buparlisib was orally administered to wildtype mice at a dose of 1 mg/kg, 2 mg/kg or 5 mg/kg. One hour after injection, blood and tissues were collected for LC-MS/MS analysis. Buparlisib plasma and brain levels increase dose-dependently, yielding similar and excellent brain-plasma ratios at all dose levels that were tested. (B) Immunoblotting of brain tissue lysates from (A). […] (C) Plasma-time curves of male and female wildtype mice following intravenous (2 mg/kg) or oral (5 mg/kg) administration. […] The oral bioavailability of buparlisib is excellent, since oral and intravenous administration yielded similar dose-adjusted AUCs (see Table 1). All data are represented as mean ± SD (n = 4).
Next, we studied the intracranial pharmacodynamics of buparlisib in WT FVB mice as measured by target inhibition.
Mouse brains were homogenized in RIPA buffer supplemented with sodium fluoride (2 mM), sodium orthovanadate (1 mM), sodium pyrophosphate (1 mM), β-glycerophosphate (2.5 mM), PMSF (1 mM), DTT (1 mM) and protein inhibitor cocktail (Roche; Basel, Switzerland). The primary antibodies that were used in this study are phospho-Akt^S473 (1:1000; D9E, #4060; Cell Signaling Technology; Danvers, MA), total Akt (1:1000; #9272; Cell Signaling Technology), phospho-Erk1^T202/204/Erk2^T183/Y185 (1:1000; sc-16982; Santa Cruz Biotechnology, Dallas, TX), total Erk1/2 (1:1000; C16, sc-93; Santa Cruz Biotechnology) and β–tubulin (1:1000; T3952; Sigma-Aldrich, St. Louis, MO). Goat-anti-rabbit-HRP (1:2000; DAKO, Santa Clara, CA) was used a secondary antibody.

[2] = FVB, mouse, plasma, iv, i.v. (2 mg/kg), female
[3] = FVB, mouse, plasma, iv, i.v. (2 mg/kg), male
[4] = FVB, mouse, plasma, po, p.o. (5 mg/kg), female
[5] = FVB, mouse, plasma, po, p.o. (5 mg/kg), male

For `Nc1cc(C(F)(F)F)c(-c2cc(N3CCOCC3)nc(N3CCOCC3)n2)cn1` [buparlisib], the Cmax [1, 2] was 1900 ± 410 ng/mL, the half-life [1, 2] was 1.6 ± 0.07 h and the Vd ([1]; FVB, mouse, plasma, iv, i.v. (2 mg/kg), female, read-out: Vz) was 0.86 ± 0.14 L/kg. The Cmax [1, 3] was 2100 ± 190 ng/mL, the half-life [1, 3] was 1.67 ± 0.07 h and the Vd ([1]; FVB, mouse, plasma, iv, i.v. (2 mg/kg), male, read-out: Vz) was 0.8 ± 0.23 L/kg. The concentration at 24 h ([1]; FVB, mouse, plasma, oral, mice, 5 mg/kg, read-out: plasma level after 24 h) was < 1 ng/mL and < 2.4 nM, the bioavailability ([1]; FVB, mouse, plasma, oral, female) was 112 ± 21.1% and the bioavailability ([1]; FVB, mouse, plasma, oral, male) was 103 ± 26.1%. For the same molecule, the CL/F [1, 4] was 5.33 mL/min/kg, the Cmax [1, 4] was 3000 ± 490 ng/mL and the Tmax [1, 4] was 0.67 ± 0.39 h. The half-life [1, 4] was 1.4 ± 0.04 h, the Vd/F [1, 4] was 0.63 ± 0.08 L/kg and the CL/F [1, 5] was 5.17 mL/min/kg. It also gave a Cmax [1, 5] of 3300 ± 1300 ng/mL, a Tmax [1, 5] of 1 h and a half-life [1, 5] of 1.44 ± 0.06 h. The Vd/F [1, 5] was 0.64 ± 0.03 L/kg, the oral bioavailability ([1]; both genders, dose-corrected AUC oral vs i.v.) was “complete” and the Vd ([1]; both sexes, FVB, mouse, plasma, intravenous, 2 mg/kg, mice, read-out: volume of distribution) was < 1 L/kg. For the same molecule, the CL ([1]; i.v. (2 mg/kg), female) was 0.37 ± 0.06 L/kg^.h, the “Plasma AUC 0-∞” value ([1]; i.v. (2 mg/kg), female) was 5600 ± 860 ng/ml^.h and the CL ([1]; i.v. (2 mg/kg), male) was 0.33 ± 0.09 L/kg^.h. The “Plasma AUC 0-∞” value ([1]; i.v. (2 mg/kg), male) was 6300 ± 1500 ng/ml^.h, the “difference in pharmacokinetics between male and female mice” value ([1]; oral and i.v. administration) was “no difference” and the “Plasma AUC 0-∞” value ([1]; p.o. (5 mg/kg), female) was 16000 ± 1700 ng/ml^.h. For the same molecule, the “Plasma AUC 0-∞” value ([1]; p.o. (5 mg/kg), male) was 16000 ± 1200 ng/ml^.h, the “phosphorylation of Akt S473 in the brain” value (PI3K; oral 5 mg/kg, wildtype mice) was “efficiently inhibited” and the “phosphorylation of AKT in brain lysates” value (PI3K; oral 1, 2, 5 mg/kg, WT FVB mice) was “dose-dependently decreased”. The “signalling through ERK in brain lysates” value (PI3K; oral, WT FVB mice) was “without affecting”.
